Reference: patent US20200230118A1, “USE OF BERBERINE OR ACTIVE METABOLITE THEREOF IN PREPARATION OF DRUG FOR PREVENTING AND/OR TREATING PHENYLKETONURIA” (Institute of Materia Medica, Chinese Academy of Medical …, priority 2017, published 2020)

Tests used:
[1] = tested on: α-methylphenylalanine induced phenylketonuria model of suckling rats; test: Therapeutic effect in α-methylphenylalanine induced phenylketonuria model of suckling rats; format: in vivo, SD suckling rats
Protocol: The phenylpyruvate concentration and ratio of phenylalanine/tyrosine in blood are the key indicators for evaluating the therapeutic effect in phenylketonuria model of suckling rats.
SD suckling rats (1 day old) were purchased from Beijing Vital River Laboratory Animal Technology Co., Ltd. All the animals and female rats were fed in SPF environment (21±2° C., 12-hour photoperiod) and had free access to food and water during the experiment. Berberine was purchased from the J&K Technology Co. LTD (Beijing, China). Phenylpyruvate, phenylalanine, and tyrosine were purchased from Solarbio Science&Technology Co. LTD (Beijing, China). α-Methylphenylalanine was purchased from Sinuokai Technology Co. LTD (Nanjing, China).
High-performance liquid chromatography-triple quadrupole tandem mass spectrometry (LC-MS/MS 8050, Shimadzu Corporation, Japan) was used to quantitatively determine the concentration of dopa, phenylalanine, tyrosine, and phenylpyruvate. Alltima C18 (5 μm, 4.6×150 mm) chromatography column was used in the experiment, and the column temperature was maintained at 40° C. The mobile phase to measure L-dopa was water-formic acid (100: 0.2 v/v) and acetonitrile. The condition of gradient elution was as follows (A: B, 0 min, 90:10; 2.5 min, 80:20; 2.51 min, 5:95; 5 min, 5:95; 5.01 min, 90:10; 8 min 90:10). The flow rate was 0.8 mL/min. Multi-reaction monitoring mode was used for quantization, and the quantitative ion pair of dopa was 198.15→[…] (m/z). Phenylalanine, tyrosine, and phenylpyruvate level were determined using Alltima C18 (5 μm, 4.6×150 mm) chromatography column at column temperature of 40° C. The mobile phase contained water-formic acid (100:0.1 v/v) and methanol. The condition of gradient elution was as follows (A: B, 0 min, 90:10; 1 min, 90:10; 1.01 min, 60:40; 5 min, 5:95; 7 min, 5:95; 7.01 min 90:10; 10 min 90:10). The flow rate was 0.8 mL/min. Multi-reaction monitoring mode was used for quantization. The quantitative ion pair was: phenylalanine, 165.85→120.20; tyrosine, 182.00→136.10; phenylpyruvate, 163.00→91.00.
Experimental design: The animals were divided into 6 groups, including: the normal control group, the model group, the low-dose of oral berberine treated model group, the high-dose of oral berberine treated model group, the intraperitoneal berberine treated model group, and the oral berberine treated pseudo-germ-free model group. The establishment of model started at 2 days old of SD suckling rats, which were administrated for 10 days, and then they were treated for 7 days.
(1) Normal control group: normal saline (s.c.).
(2) Model group: a-methylphenylalanine (s.c. 50 mg/kg/d), and phenylalanine (s.c. 200 mg/kg/d);
(3) Low-dose of oral berberine treated model group: α-methylphenylalanine (s.c. 50 mg/kg/d), phenylalanine (s.c. 200 mg/kg/d), berberine (oral, 100 mg/kg/d);
(4) High-dose of oral berberine treated model group: α-methylphenylalanine (s.c. 50 mg/kg/d), phenylalanine (s.c. 200 mg/kg/d), berberine (oral, 200 mg/kg/d);
(5) Intraperitoneal berberine treated model group: α-methylphenylalanine (s.c. 50 mg/kg/d), phenylalanine (s.c. 200 mg/kg/d), berberine (i.p. 20 mg/kg/d);
(6) Oral berberine treated pseudo-germ-free model group: α-methylphenylalanine (s.c. 50 mg/kg/d), phenylalanine (s.c. 200 mg/kg/d), berberine (oral, 200 mg/kg/d); Antibiotic dose: cefadroxil (100 mg/kg/d), oxytetracycline (300 mg/kg/d), erythromycin (300 mg/kg/d).

[2] = tested on: ICR mice; test: Effect of dihydroberberine on blood phenylpyruvate and tyrosine in ICR mice; format: in vivo
Protocol: The concentrations of phenylpyruvate and tyrosine in blood are the key indicators to evaluate the therapeutic effect for phenylketonuria.
(§1) ICR mice (male, 20±2 g) were purchased from Beijing Vital River Laboratory Animal Technology Co., Ltd. All the animals were fed in SPF environment (21±2° C., 12-hour photoperiod) and had free access to food and water during the experiment. Berberine was purchased from the J&K Technology Co. LTD (Beijing, China). Dihydroberberine was purchased from the Mansite Biology & Technology Co. LTD (Chengdu, China). Phenylpyruvate, phenylalanine, and tyrosine were purchased from Solarbio Science&Technology Co. LTD (Beijing, China).
Experimental design: The animals were divided into three groups, including the control group, the 200 mg/kg dihydroberberine oral treated group at 12 h, the 200 mg/kg dihydroberberine oral treated group at 24 h.
(§2) (1) The control group: saline 0.2 mL (oral);
(2) The 100 mg/kg dihydroberberine singe oral treated group at 12 h: 100 mg/kg […] (oral);
(3) The 100 mg/kg dihydroberberine singe oral treated group at 24 h: 100 mg/kg […] (oral).

[3] = tested on: ICR mice; test: Effect of jatrorrhizine on blood phenylpyruvate and tyrosine in ICR mice; format: in vivo
Protocol: The concentrations of phenylpyruvate and tyrosine in blood are the key indicators to evaluate the therapeutic effect for phenylketonuria in children.
as §1, with “China).” for “China). Dihydroberberine was purchased from the Mansite Biology & Technology Co. LTD (Chengdu, China).”
Experimental design: The animals were divided into three groups, including the control group, the 200 mg/kg jatrorrhizine oral treated group at 12 h, the 200 mg/kg jatrorrhizine oral treated group at 24 h.
as §2
(2) The 200 mg/kg jatrorrhizine singe oral treated group at 12 h: 200 mg/kg jatrorrhizine (oral);
(3) The 200 mg/kg jatrorrhizine single oral treated group at 24 h: 200 mg/kg jatrorrhizine (oral).

## COc1ccc2cc3[n+](cc2c1OC)CCc1cc2c(cc1-3)OCO2 [berberine]
[1]; intraperitoneal injection 20 mg/kg/d (FIG. 2)
  Phenylalanine/tyrosine ratio in blood: not significantly changed
[1]; intraperitoneal injection 20 mg/kg/d (FIG. 3)
  Concentration of dopa in brain: not significantly changed
[1]; intraperitoneal injection 20 mg/kg/d (FIG. 4)
  Concentration of dopamine in brain: not significantly changed
[1]; intraperitoneal injection 20 mg/kg/d, 7 days (FIG. 1)
  Phenylpyruvate level in blood: not significantly changed
[1]; oral 100 and 200 mg/kg/d for 7 days, vs model group, dose-dependent (FIG. 1)
  Phenylpyruvate level in blood: significantly decreased
[1]; oral 100 and 200 mg/kg/d, vs model group, dose-dependent (FIG. 2)
  Phenylalanine/tyrosine ratio in blood: significantly decreased
[1]; oral 100 and 200 mg/kg/d, vs model group, dose-dependent (FIG. 3)
  Concentration of dopa in brain: significantly increased
[1]; oral 100 and 200 mg/kg/d, vs model group, dose-dependent (FIG. 4)
  Concentration of dopamine in brain: significantly increased
[1]; oral administration
  Level of tyrosine in blood: increase
[1]; pseudo-germ-free (antibiotic treated) model, oral 200 mg/kg/d (FIG. 1)
  Phenylpyruvate level in blood: not significantly changed
[1]; pseudo-germ-free model, oral 200 mg/kg/d (FIG. 2)
  Phenylalanine/tyrosine ratio in blood: not significantly changed
[1]; pseudo-germ-free model, oral 200 mg/kg/d (FIG. 3)
  Concentration of dopa in brain: not significantly changed
[1]; pseudo-germ-free model, oral 200 mg/kg/d (FIG. 4)
  Concentration of dopamine in brain: not significantly changed

## COc1ccc2c(c1OC)CN1CCc3cc4c(cc3C1=C2)OCO4 [dihydroberberine]
[2]; oral administration
  Ratio of phenylalanine/tyrosine in blood: reduce
[2]; single oral 100 mg/kg (200 mg/kg), 12 h and 24 h, vs control (FIG. 7)
  Tyrosine level in blood: significantly increased
[2]; single oral 100 mg/kg (200 mg/kg), 12 h and 24 h, vs control (FIG. 8)
  Phenylpyruvate level in blood: significantly decreased

## COc1cc2c(cc1O)CC[n+]1cc3c(OC)c(OC)ccc3cc1-2 [jatrorrhizine]
[3]; oral administration
  Ratio of phenylalanine/tyrosine in blood: reduce
[3]; single oral 200 mg/kg, 12 h and 24 h, vs control (FIG. 5)
  Tyrosine level in blood: significantly increased
[3]; single oral 200 mg/kg, 12 h and 24 h, vs control (FIG. 6)
  Phenylpyruvate level in blood: significantly decreased
